For 10 molecules, TGI and GI50 results are on record in PubChem BioAssay (NCI).

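Method: 48-hour compound exposure of cells in 96-well plates, five concentrations, linear interpolation of endpoints. Here, GI50 denotes the concentration required for 50% inhibition of growth. TGI: concentration producing complete growth inhibition.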

Test systems include UO-31 renal; SR leukemia; OVCAR-8 ovarian; HCT-15 colon; ACHN renal; K-562 leukemia; SK-OV-3 ovarian; SK-MEL-5 melanoma; KM12 colon; NCI-H23 lung.
What all share (assay): DTP human tumour cell line panel, 48 h

For the molecule `C[N+](C)(C)CC1CCCC(C[N+](C)(C)C)C1O` (centres undefined), the TGI with UO-31 renal, in the assay with SR leukemia, with OVCAR-8 ovarian, in the assay with HCT-15 colon, with ACHN renal and with K-562 leukemia was over 100 µM throughout. Also, the TGI with SK-OV-3 ovarian, with SK-MEL-5 melanoma, in the assay on KM12 colon and with NCI-H23 lung was over 100 µM each time.
Turning to `CN1CCN(c2nc(-c3ccncc3)nc3sc4c(c23)CCCCCC4)CC1`, the GI50 in the assay on UO-31 renal was 1.57 µM; with SR leukemia, 2.81 µM; with OVCAR-8 ovarian it was 12.2 µM; in the assay with HCT-15 colon, 11.3 µM; in the assay on ACHN renal, 7.99 µM; in the assay on K-562 leukemia, 3.53 µM. Moreover, the GI50 in the assay on SK-OV-3 ovarian was 12.2 µM; in the assay with SK-MEL-5 melanoma, 7.94 µM; in the assay on KM12 colon it was 13.4 µM; with NCI-H23 lung it was 11.4 µM. The concentration for total growth inhibition (TGI) with UO-31 renal turned out to be 8.85 µM; in the assay with SR leukemia, 12.2 µM; with OVCAR-8 ovarian, 26.3 µM; in the assay with HCT-15 colon, 24.3 µM; in the assay on ACHN renal, 20.5 µM; in the assay on K-562 leukemia it was 16.3 µM. In addition, the total growth inhibition concentration (TGI) in the assay on SK-OV-3 ovarian came out at 24.6 µM; with SK-MEL-5 melanoma, 20.5 µM; in the assay on KM12 colon, 28 µM; with NCI-H23 lung, 24.3 µM.
In the case of `CC1CC2(C)CC(=O)C1C1C(=O)N(CCN3CCCCC3)C(=O)C12` (centres undefined), the GI50 in the assay with UO-31 renal, in the assay with SR leukemia, in the assay with OVCAR-8 ovarian, with HCT-15 colon, with ACHN renal and with K-562 leukemia was over 100 µM in each case. The GI50 in the assay with SK-OV-3 ovarian, in the assay with SK-MEL-5 melanoma, in the assay on KM12 colon and in the assay on NCI-H23 lung was over 100 µM throughout. Further, the TGI in the assay with UO-31 renal, in the assay on SR leukemia, in the assay on OVCAR-8 ovarian, with HCT-15 colon, in the assay with ACHN renal and in the assay on K-562 leukemia was over 100 µM in each case. Besides, the concentration for total growth inhibition (TGI) with SK-OV-3 ovarian, in the assay with SK-MEL-5 melanoma, in the assay with KM12 colon and with NCI-H23 lung was over 100 µM throughout.
As to `COc1cc(/C=C(\C#N)C(N)=C(C#N)C#N)cc(O)c1O`, the TGI with UO-31 renal, in the assay on SR leukemia, with OVCAR-8 ovarian, in the assay on HCT-15 colon, in the assay on ACHN renal and with K-562 leukemia was over 100 µM in each case. The concentration for total growth inhibition (TGI) in the assay on SK-OV-3 ovarian, with SK-MEL-5 melanoma, with KM12 colon and in the assay on NCI-H23 lung was over 100 µM in each case.
Consider `O=C1CN(/N=C/c2ccc(-c3ccc(F)cc3)o2)C(=O)N1`, for which the TGI in the assay on UO-31 renal was over 100 µM; with SR leukemia, 75.7 µM; in the assay with OVCAR-8 ovarian, over 100 µM; with HCT-15 colon, over 100 µM; in the assay on ACHN renal, over 100 µM; in the assay with K-562 leukemia it was over 100 µM. Moreover, the concentration for total growth inhibition (TGI) with SK-OV-3 ovarian, with SK-MEL-5 melanoma, in the assay with KM12 colon and in the assay with NCI-H23 lung was over 100 µM in each case.
Regarding `CC(NC(=O)c1ccccc1)(C(=O)O)C(=O)O`, the total growth inhibition concentration (TGI) in the assay on UO-31 renal, with SR leukemia, in the assay on OVCAR-8 ovarian, with HCT-15 colon, with ACHN renal and with K-562 leukemia was over 100 µM throughout. For the same molecule, the concentration for total growth inhibition (TGI) in the assay on SK-OV-3 ovarian, with SK-MEL-5 melanoma, in the assay on KM12 colon and in the assay with NCI-H23 lung was over 100 µM in each case.
Regarding `O=C(Nc1ccccc1C(=O)N/N=C(\c1ccccc1)c1ccccn1)c1ccc(F)cc1`, the concentration for 50% growth inhibition (GI50) is 0.0828 µM with UO-31 renal; 0.142 µM in the assay with SR leukemia; 0.31 µM in the assay with OVCAR-8 ovarian; 0.0426 µM with HCT-15 colon; 0.127 µM in the assay on ACHN renal; 0.519 µM in the assay on K-562 leukemia. For the same molecule, the GI50 is 0.354 µM in the assay on SK-OV-3 ovarian, 0.22 µM with SK-MEL-5 melanoma, 0.421 µM with KM12 colon and 0.595 µM in the assay with NCI-H23 lung. In addition, the TGI is 7.25 µM in the assay on UO-31 renal; over 100 µM with SR leukemia; over 100 µM in the assay with OVCAR-8 ovarian; over 100 µM in the assay on HCT-15 colon; over 100 µM in the assay with K-562 leukemia; over 20.9 µM in the assay with SK-OV-3 ovarian. Besides, the TGI in the assay with SK-MEL-5 melanoma is 3.5 µM; in the assay with KM12 colon, over 100 µM; in the assay with NCI-H23 lung it was over 100 µM.
`CC(=O)Oc1ccc(/C=N/NC(N)=S)nc1`: the GI50 with UO-31 renal is 3.51 µM; in the assay with SR leukemia it was 1.51 µM; in the assay on OVCAR-8 ovarian it was 2.85 µM; in the assay on HCT-15 colon, 22.5 µM; with ACHN renal, 3.49 µM; in the assay with K-562 leukemia, 6 µM. The GI50 with SK-OV-3 ovarian was 17.8 µM; in the assay on SK-MEL-5 melanoma, 3.38 µM; in the assay on KM12 colon it was 4.82 µM; with NCI-H23 lung it was 2.39 µM. Also, the total growth inhibition concentration (TGI) in the assay on UO-31 renal was 14.1 µM; in the assay on SR leukemia it was over 100 µM; in the assay with OVCAR-8 ovarian, over 100 µM; in the assay with HCT-15 colon it was over 100 µM; in the assay on ACHN renal it was over 100 µM; with K-562 leukemia, over 100 µM. Moreover, the TGI with SK-OV-3 ovarian is over 100 µM; in the assay on SK-MEL-5 melanoma, 23.4 µM; with KM12 colon it was over 100 µM; with NCI-H23 lung, over 100 µM.
In the case of `CNC(=O)CN(CC(N)=O)C(N)=O`, the TGI in the assay on UO-31 renal, with SR leukemia, in the assay with OVCAR-8 ovarian, in the assay with HCT-15 colon, in the assay on ACHN renal and in the assay on K-562 leukemia was over 100 µM throughout. Further, the TGI in the assay with SK-OV-3 ovarian, in the assay with SK-MEL-5 melanoma, in the assay on KM12 colon and in the assay on NCI-H23 lung was over 100 µM each time.
`O=C1C=CC2(C=C1)C[C@H](NC(=O)C(F)(F)F)C(=O)O2`: the TGI in the assay on UO-31 renal is over 100 µM; in the assay with SR leukemia, over 100 µM; with OVCAR-8 ovarian it was over 100 µM; in the assay with HCT-15 colon, over 100 µM; in the assay on ACHN renal, over 100 µM; in the assay on K-562 leukemia, 65.8 µM. The TGI with SK-OV-3 ovarian was over 100 µM; in the assay with SK-MEL-5 melanoma it was over 100 µM; in the assay with KM12 colon it was over 100 µM; in the assay with NCI-H23 lung it was 69.4 µM.

Broadly, the TGI is the concentration giving total growth inhibition. A lower TGI goes with more potent growth arrest. Usually GI50 stands for the concentration that inhibits growth by half.
